Measured values from US20170107207A1, “AMINOPYRAZOLONE DERIVATIVE” (DAIICHI SANKYO COMPANY, LIMITED, priority 2014, published 2017).

Key:
TIP48/TIP49 complex = target: T1, TIP48/TIP49 complex (Homo sapiens, UniProt Q9Y230+Q9Y265); experiment: ATPase assay of TIP48/TIP49 complex (ADP-Glo); assay type: biochemical; conditions: concentration at which the ATPase activity was inhibited by 50%
T1 construct: made in house; host or cells: E. coli
Outline: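 Recombinant human TIP48 and TIP49 expressed in E. coli (24.5 μg/mL final) were incubated 1.5 h at room temperature with compound (0.0007–200 μM, 2% DMSO) in Tris-HCl pH 7.5 buffer containing MgCl2 and ATP. ADP formed was detected by ADP-Glo luminescence; inhibition came from dose-response curves.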

[1] = test system: human lymphoma cell line RAMOS cells; experiment: Cell growth inhibition test using RAMOS cell, MTT assay; assay type: cell-based; conditions: 50% growth inhibition concentration
Method: A cell growth inhibition test was carried out by treating human lymphoma cell line RAMOS cells with a test compound for a given period and then counting the number of viable cells by MTT assay or CellTiter-Glo Luminescent Cell Viability Assay (manufactured by Promega Corp.; hereinafter, referred to as ATP assay).
RAMOS cells were suspended in a medium (RPMI1640 medium containing 10% fetal bovine serum). The cell suspension was inoculated at 5000 cells/150 μL/well to a 96-well multiwell plate. The test compound was dissolved in DMSO, and this solution was diluted with medium to prepare a sample solution (DMSO concentration: 1% or lower). Subsequently, test compound-free medium or the sample solution was added thereto at 50 μL/well. The MTT assay was carried out at the day of addition of the sample solution or the DMSO dilution to the cells and after culture at 37° C. for 3 days under 5% CO2 of the cells supplemented with the sample solution or the medium. The MTT assay was carried out as follows.
A 5 mg/mL solution of MTT (3-(4,5-dimethylthiazol-2-yl)-2,5-diphenyltetrazolium bromide, Sigma-Aldrich Corp., M-2128) was prepared using a phosphate buffered solution (Dulbecco's phosphate-buffered saline). This MTT solution was added at 20 μL/well to the plate. Then, the plate was incubated at 37° C. for 4 hours under 5% CO2. The plate was centrifuged at 1200 rpm for 5 minutes, and then, the culture supernatant was removed by suction using a dispenser. DMSO was added thereto at 150 μL/well to dissolve formed formazan. […] from each well was rendered uniform by the stirring of the plate using a plate mixer. The absorbance of each well was measured using a plate reader under conditions involving OD of 540 nm and reference of 660 nm.
The number of viable cells and absorbance (hereinafter, referred to as an OD value) have been confirmed to correlate with each other. Therefore, the rate of cell growth was calculated according to the following expression: Rate of cell growth (T/C %) of a test compound-supplemented well=100×[(B−C)/(A−C)] wherein A represents the OD value (final culture date) of a test compound-free well; B represents the OD value (final culture date) of a test compound-containing well; and C represents the OD value (day of cell inoculation) of a well at the start of contact of the cells with the test compound.
T/C % at each concentration of the test compound was determined. The concentration at which the test compound offered 50% growth rate was calculated as a 50% growth inhibition concentration (GI50) value from the growth rates at two points interpolating 50% and the concentrations, and is shown in Table 56.

T1 sequence (Q9Y230 whole entry): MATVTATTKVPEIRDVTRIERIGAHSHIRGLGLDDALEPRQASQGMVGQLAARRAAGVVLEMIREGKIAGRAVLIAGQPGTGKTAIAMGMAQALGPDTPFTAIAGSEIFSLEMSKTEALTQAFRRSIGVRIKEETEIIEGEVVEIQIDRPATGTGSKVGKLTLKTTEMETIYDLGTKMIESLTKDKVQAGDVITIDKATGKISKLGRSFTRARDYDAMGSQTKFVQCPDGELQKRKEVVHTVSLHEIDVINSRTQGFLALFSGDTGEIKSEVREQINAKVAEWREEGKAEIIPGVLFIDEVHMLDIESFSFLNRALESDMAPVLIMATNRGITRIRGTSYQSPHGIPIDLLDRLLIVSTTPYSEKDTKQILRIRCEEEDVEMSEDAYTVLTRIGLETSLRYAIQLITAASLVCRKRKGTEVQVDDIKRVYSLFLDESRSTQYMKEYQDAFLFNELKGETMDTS
T1 sequence (Q9Y265 whole entry): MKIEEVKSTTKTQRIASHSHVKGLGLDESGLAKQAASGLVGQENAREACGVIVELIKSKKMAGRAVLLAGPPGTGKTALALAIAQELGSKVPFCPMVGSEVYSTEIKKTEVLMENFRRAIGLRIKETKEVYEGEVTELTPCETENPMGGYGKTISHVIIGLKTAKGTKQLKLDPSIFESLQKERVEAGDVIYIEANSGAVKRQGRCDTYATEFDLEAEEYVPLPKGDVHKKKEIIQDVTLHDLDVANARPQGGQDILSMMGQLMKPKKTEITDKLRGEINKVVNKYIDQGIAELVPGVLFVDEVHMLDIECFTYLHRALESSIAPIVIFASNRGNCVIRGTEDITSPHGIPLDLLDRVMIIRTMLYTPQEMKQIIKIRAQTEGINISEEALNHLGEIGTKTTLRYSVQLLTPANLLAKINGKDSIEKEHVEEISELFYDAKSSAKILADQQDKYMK

| IC50 (TIP48/TIP49 complex) | GI50 [1] | Compound |
| --- | --- | --- |
| 65 nM | 550 nM | CCOc1ccc(Cl)cc1C(=O)NCC(C)(C)CC(=O)Nc1c(CCNC(C)C)n(C)n(-c2ccccc2)c1=O [Example 18, 5-Chloro-N-[4-({5-[2-(isopropylamino)ethyl]-1-methyl-3-oxo-2-phenyl-2,3-dihydro-1H-pyrazol-4-yl}amino)-2,2-dimethyl-4-oxobutyl]-2-ethoxybenzamide] |
| 63 nM | 150 nM | CCOc1ccc(Cl)cc1C(=O)NCC(C)(C)CC(=O)Nc1c(CCN(C)C(C)C)n(C)n(-c2ccccc2)c1=O [Example 19, 5-Chloro-2-ethoxy-N-{4-[(5-{2-[isopropyl(methyl)amino]ethyl}-1-methyl-3-oxo-2-phenyl-2,3-dihydro-1H-pyrazol-4-yl)amino]-2,2-dimethyl-4-oxobutyl}benzamide] |
| 65 nM | 190 nM | COc1ccc(Cl)cc1C(=O)NCC(C)(C)CC(=O)Nc1c(CCNC(=O)OC(C)(C)C)n(C)n(-c2ccccc2)c1=O [Example 20, tert-Butyl N-{2-[4-({4-[(5-chloro-2-methoxybenzoyl)amino]-3,3-dimethylbutanoyl}amino)-2-methyl-5-oxo-1-phenyl-2,3-dihyro-1H-pyrazol-3-yl]ethyl}carbamate] |
| 110 nM | 920 nM | COc1ccc(Cl)cc1C(=O)NCC(C)(C)CC(=O)Nc1c(CCN)n(C)n(-c2ccccc2)c1=O [Example 21] |
| 110 nM | 460 nM | COc1ccc(Cl)cc1C(=O)NCC(C)(C)CC(=O)Nc1c(CCN(C)C)n(C)n(-c2ccccc2)c1=O [Example 22, 5-Chloro-N-[4-({5-[2-(dimethylamino)ethyl]-1-methyl-3-oxo-2-phenyl-2,3-dihydro-1H-pyrazol-4-yl}amino)-2,2-dimethyl-4-oxobutyl]-2-methoxybenzamide] |
| 110 nM | 270 nM | CCOc1ccc(Cl)cc1NC(=O)CC(C)(C)CC(=O)Nc1c(CCN(C)C)n(C)n(-c2ccccc2)c1=O [Example 23, N-(5-Chloro-2-ethoxyphenyl)-N′-{5-[2-(dimethylamino)ethyl]-1-methyl-3-oxo-2-phenyl-2,3-dihydro-1H-pyrazol-4-yl}-3,3-dimethylpentanediamide] |
| 380 nM | 480 nM | CCOc1cc(F)c(Cl)cc1NC(=O)CC(C)(C)CC(=O)Nc1c(CCN(C)C)n(C)n(-c2ccccc2)c1=O [Example 24, N-(5-Chloro-2-ethoxy-4-fluorophenyl)-N′-{5-[2-(dimethylamino)ethyl]-1-methyl-3-oxo-2-phenyl-2,3-dihydro-1H-pyrazol-4-yl}-3,3-dimethylpentanediamide] |
| 140 nM | 490 nM | CCOc1ncc(Cl)cc1NC(=O)CC(C)(C)CC(=O)Nc1c(CCN(C)C)n(C)n(-c2ccccc2)c1=O [Example 25, N-(5-Chloro-2-ethoxy-3-pyridyl)-N′-{5-[2-(dimethylamino)ethyl]-1-methyl-3-oxo-2-phenyl-2,3-dihydro-1H-pyrazol-4-yl}-3,3-dimethylpentanediamide] |
| 63 nM | 130 nM | CCOc1ccc(Cl)cc1C(=O)NCC(C)(C)CC(=O)Nc1c(CCNC)n(C)n(-c2ccccc2)c1=O [Example 33, 5-Chloro-N-[2,2-dimethyl-4-({1-methyl-5-[2-(methylamino)ethyl]-3-oxo-2-phenyl-2,3-dihydro-1H-pyrazol-4-yl}amino)-4-oxobutyl]-2-ethoxybenzamide] |
| 26 nM | 98 nM | CCOc1ccc(Cl)cc1C(=O)NCC(C)(C)CC(=O)Nc1c(CCN(C)CC)n(C)n(-c2ccccc2)c1=O [Example 35, 5-Chloro-2-ethoxy-N-{4-[(5-{2-[ethyl(methyl)amino]ethyl}-1-methyl-3-oxo-2-phenyl-2,3-dihydro-1H-pyrazol-4-yl)amino]-2,2-dimethyl-4-oxobutyl}benzamide] |
| 29 nM | 100 nM | CCOc1ccc(Cl)cc1C(=O)NCC(C)(C)CC(=O)Nc1c(CCCN(C)C)n(C)n(-c2ccccc2)c1=O [Example 63, 5-Chloro-N-[4-({5-[3-(dimethylamino)propyl]-1-methyl-3-oxo-2-phenyl-2,3-dihydro-1H-pyrazol-4-yl}amino)-2,2-dimethyl-4-oxobutyl]-2-ethoxybenzamide] |
| 33 nM | 61 nM | CCOc1ccc(Cl)cc1C(=O)NCC(C)(C)CC(=O)Nc1c(CCCCN(C)C)n(C)n(-c2ccccc2)c1=O [Example 88, 5-Chloro-N-[4-({5-[4-(dimethylamino)butyl]-1-methyl-3-oxo-2-phenyl-2,3-dihydro-1H-pyrazol-4-yl}amino)-2,2-dimethyl-4-oxobutyl]-2-ethoxybenzamide] |
| 25 nM | 55 nM | CCOc1ccc(Cl)cc1C(=O)NCC(C)(C)CC(=O)Nc1c(C)n(C)n(-c2ccccc2)c1=O [Example 93, 5-Chloro-N-{4-[(1,5-dimethyl-3-oxo-2-phenyl-2,3-dihydro-1H-pyrazol-4-yl)amino]-2,2-dimethyl-4-oxobutyl}-2-ethoxybenzamide] |
| 87 nM | 73 nM | Cc1c(NC(=O)CC(C)(C)CNC(=O)c2cc(Cl)ccc2OC(C)C)c(=O)n(-c2ccccc2)n1C [Example 94] |
| 59 nM | 180 nM | CCOc1ncc(Cl)cc1C(=O)NCC(C)(C)CC(=O)Nc1c(C)n(C)n(-c2ccccc2)c1=O [Example 95] |
| 35 nM | 120 nM | Cc1c(NC(=O)CC(C)(C)CNC(=O)c2cc(Cl)ccc2OC2CC2)c(=O)n(-c2ccccc2)n1C [Example 96] |
| 100 nM | 1000 nM | Cc1c(NC(=O)CC(C)(O)CNC(=O)c2cc(Cl)c(F)cc2OC(C)C)c(=O)n(-c2ccccc2)n1C (stereo not shown) [Example 97, 5-Chloro-N-{4-[(1,5-dimethyl-3-oxo-2-phenyl-2,3-dihydro-1H-pyrazol-4-yl)amino]-2-hydroxy-2-methyl-4-oxobutyl}-4-fluoro-2-isopropoxybenzamide] |
| 2200 nM | 9600 nM | COc1ccc(Cl)cc1NC(=O)CC1(CC(=O)Nc2c(C)n(C)n(-c3ccccc3)c2=O)OCCO1 [Example 98, N-(5-Chloro-2-methoxyphenyl)-2-(2-{2-[(1,5-dimethyl-3-oxo-2-phenyl-2,3-dihydro-1H-pyrazol-4-yl)amino]-2-oxoethyl}-1,3-dioxolan-2-yl)acetamide] |
| 260 nM | 400 nM | CCC(C)(CC(=O)Nc1cc(Cl)ccc1OC)CC(=O)Nc1c(C)n(C)n(-c2ccccc2)c1=O (stereo not shown) [Example 99, N-(5-Chloro-2-methoxyphenyl)-N′-(1,5-dimethyl-3-oxo-2-phenyl-2,3-dihydro-1H-pyrazol-4-yl)-3-ethyl-3-methylpentanediamide] |
| 95 nM | 860 nM | COc1ccc(Cl)cc1NC(=O)CC1(CC(=O)Nc2c(C)n(C)n(-c3ccccc3)c2=O)CCC1 [Example 100, N-(5-Chloro-2-methoxyphenyl)-2-(1-{2-[(1,5-dimethyl-3-oxo-2-phenyl-2,3-dihydro-1H-pyrazol-4-yl)amino]-2-oxoethyl}cyclobutyl)acetamide] |
| 450 nM | 3200 nM | COc1ccc(Cl)cc1NC(=O)CC1(CC(=O)Nc2c(C)n(C)n(-c3ccccc3)c2=O)CC1 [Example 101, N-(5-Chloro-2-methoxyphenyl)-2-(1-{2-[(1,5-dimethyl-3-oxo-2-phenyl-2,3-dihydro-1H-pyrazol-4-yl)amino]-2-oxoethyl}cyclopropyl)acetamide] |
| 150 nM | 780 nM | CCOc1ccc(Cl)cc1NC(=O)CC(C)(CC(=O)Nc1c(C)n(C)n(-c2ccccc2)c1=O)OC(C)=O (stereo not shown) [Example 102, {1-[2-(5-Chloro-2-ethoxyaniline)-2-oxoethyl]-3-[(1,5-dimethyl-3-oxo-2-phenyl-2,3-dihydro-1H-pyrazol-4-yl)amino]-1-methyl-3-oxopropyl} acetate] |
| 170 nM | 1400 nM | CCOc1ccc(Cl)cc1NC(=O)CC(C)(O)CC(=O)Nc1c(C)n(C)n(-c2ccccc2)c1=O (stereo not shown) [Example 103, N-(5-Chloro-2-ethoxyphenyl)-N′-(1,5-dimethyl-3-oxo-2-phenyl-2,3-dihydro-1H-pyrazol-4-yl)-3-hydroxy-3-methylpentanediamide] |
